The values that follow come from PMC8427023, “Bithiazole Inhibitors of Phosphatidylinositol 4‐Kinase (PI4KIIIβ) as Broad‐Spectrum Antivirals Blocking the Replication of SARS‐CoV‐2, Zika Virus, and Human Rhinoviruses” (Chemmedchem, 2021).

≈ marks a conversion by molar mass, not a printed value. Where two headings read alike, the source gives them in different places.

The target in one data set is T1, PI4KIIIβ (Homo sapiens, UniProt Q9UBF8).
T1 construct: Recombinant full length, HIS6 -tagged PI4KIIIβ was purchased from ProQinase; His6; purchased ProQinase (Germany)
T1 sequence (Q9UBF8 whole entry): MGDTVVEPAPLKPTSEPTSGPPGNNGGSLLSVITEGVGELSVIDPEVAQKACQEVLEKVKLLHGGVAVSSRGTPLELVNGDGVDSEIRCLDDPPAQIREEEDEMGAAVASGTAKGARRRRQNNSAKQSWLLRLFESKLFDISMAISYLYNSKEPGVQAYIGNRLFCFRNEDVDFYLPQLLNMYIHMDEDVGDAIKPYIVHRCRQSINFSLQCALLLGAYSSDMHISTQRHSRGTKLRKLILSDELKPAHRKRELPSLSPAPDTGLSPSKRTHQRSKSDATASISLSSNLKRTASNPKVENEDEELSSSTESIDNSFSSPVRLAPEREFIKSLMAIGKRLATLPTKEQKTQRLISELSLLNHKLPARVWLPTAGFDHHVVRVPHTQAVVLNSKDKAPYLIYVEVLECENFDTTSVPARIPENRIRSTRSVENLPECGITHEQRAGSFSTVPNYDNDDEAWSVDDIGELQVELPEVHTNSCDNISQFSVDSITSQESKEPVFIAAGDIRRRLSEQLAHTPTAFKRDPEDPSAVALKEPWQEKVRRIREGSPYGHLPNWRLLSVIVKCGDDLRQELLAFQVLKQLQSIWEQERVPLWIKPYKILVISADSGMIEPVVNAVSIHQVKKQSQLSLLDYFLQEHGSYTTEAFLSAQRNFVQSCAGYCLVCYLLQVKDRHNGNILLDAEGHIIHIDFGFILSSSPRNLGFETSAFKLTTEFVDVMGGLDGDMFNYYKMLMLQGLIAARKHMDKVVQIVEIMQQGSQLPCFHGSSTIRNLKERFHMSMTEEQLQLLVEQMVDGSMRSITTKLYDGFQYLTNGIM
Put plainly: In vitro kinase inhibition assay, PI4KIIIβ. It counts as biochemical. The following applies: mean of at least three independent experiments; 20 μM ATP.

Data set [1] is described as follows: Cytotoxicity assay (CellTiter-Glo 2.0) in Calu-3 cells. The format is cell-based. The note with it: human, half-maximal cytotoxic concentration, read-out: SARS-CoV-2 Calu-3 CC50. On the technique in general: Cellular ATP, detected with luciferase, serves as a proxy for viable cell number.
A further data set relates to ZIKV. Briefly: Direct yield reduction assay (DYRA), ZIKV in Huh7 cells. The note with it: Zika virus, read-out: ZIKV Huh7 IC50. The format is cell-based, Zika virus.
Data set [2] concerns hRV2. Put plainly: Multicycle CPE reduction antiviral assay, hRV2 in HeLa cells. It counts as cell-based, human rhinovirus 2. The note with it: Rhinovirus A, HRV2, 72 h, 3 days.
In data set [3] the test system is hRV14. Put plainly: Multicycle CPE reduction antiviral assay, hRV14 in HeLa cells. The note with it: Rhinovirus B, HRV14, 72 h, 3 days. It counts as cell-based, human rhinovirus 14.
A further data set can be described thus: physchem. The format is physicochemical. The following applies: pH 7.4, aqueous buffer.
Data set [4] in a line: in vitro. The format is in vitro ADME. The note with it: PAMPA, pH 7.4; for Membrane Retention (% MR): 5 h, 500 μM. As for the experimental part:
(§1) appropriate calibration curve. For each compound, the determination was performed in three […]
(§2) Parallel Artificial Membrane Permeability Assay (PAMPA)
(§3) Each ‘donor solution’ was prepared from a solution of each compound (DMSO, 1 mM) diluted with 25 mM Phosphate Buffered Saline (PBS) at pH 7.4, up to a final concentration of 500 μM. The donor wells were filled with 150 µL of ‘donor solution’. The filters were coated with 5 μL of a solution of phosphatidylcholine in dodecane 1% (w/v) and the lower wells filled with 300 µL of ‘acceptor solution’ (50% v/v DMSO and PBS). The sandwich plate was assembled and incubated for 5 hours at room temperature under gentle shaking. At the end of the incubation time, the sandwich was disassembled and the amount of compound in the donor and acceptor wells was measured by LC-UV-MS. For each compound, the determination was performed in three independent experiments.
Apparent permeability (Papp) and membrane retention (%MR) were calculated according to the equations reported in reference. […]
(In general: PAMPA measures passive passage across an artificial lipid membrane.)

Data set [5] is classed as in vitro ADME. The note with it: human, 24 h, 100 µM, pH 7.4. As for the experimental part:
appropriate calibration curve. […]
(§4) Stability in Human Plasma
(§5) Pooled human plasma (1.5 mL, […]), PBS (1.4 mL, pH 7.4, 25 mM) and tested compound dissolved in DMSO (100 µL, 3.0 mM) were mixed in a test tube that was incubated at 37 […]
mixed with 600 µL of cold acetonitrile and centrifuged at 5000 rpm for 15 min [3]. The supernatant was removed and analyzed by LC-UV-MS. For each compound, the determination was performed in three independent experiments. […]

Data set [6] in a line: Stability in medium/serum solution. It counts as in vitro ADME. The note with it: EMEM, 2 mM L-glut, 1 % FBS, 1 % Pen/Strep, 37 °C. As for the experimental part: as §1, §2, §3
Apparent permeability (Papp) and membrane retention (%MR) were calculated according to the equations reported in reference.
as §4, §5
mixed with 600 µL of cold acetonitrile and centrifuged at 5000 rpm for 15 min [3]. The supernatant was removed and analyzed by LC-UV-MS. For each compound, the determination was performed in three independent experiments.
Stability in Medium/Serum solution
The stability of compounds under the experimental conditions used in the ENTRY-DYRA antiviral assay was evaluated. Each tested compound dissolved din DMSO (1.0 mL, 400 µM) was mixed in a test tube with EMEM, 2 mM L-glut, 1% FBS, 1% Pen/Strep solution (final concentration of the compound of 200 µM) and then incubated at 37 °C. At set time points (0.0, 0.08, 0.25, 0.50, 1.0, 3.0, and 24.0 h), samples of 100 µL were taken, mixed with 400 µL of cold acetonitrile and centrifuged at 5000 rpm for 15 min. The supernatant was removed and analyzed by UV/LC-MS. For each compound, the determination was performed in three independent experiments.

A short description of data set [7]: Stability in medium/serum solution. The format is in vitro ADME. The following applies: EMEM, 2 mM L-glut, 1 % FBS, 1 % Pen/Strep, 37 °C. The source holds these as a separate data set.
The nature of data set [8]: in vitro. The note with it: human.
Data set [9] is described as follows: in vitro. The following applies: human. This is another data set of the same source.
A short description of data set [10]: in vitro. The following applies: human. This is another data set of the same source.
Data set [11] has as its system SARS-CoV-2. Put plainly: microbe, parasite or virus in culture. The format is cell-based. The note with it: read-out: SARS-CoV-2 Calu-3 IC50 (DYRA protocol).
The subject of data set [12] is SARS-CoV-2. Put plainly: ENTRY-DYRA (entry inhibitor protocol), SARS-CoV-2 in Calu-3 cells. It counts as cell-based.
Data set [13] concerns hRV2. Also noted: method as in PMID 31729878. The following applies: HeLa cells; cited from earlier work.
Data set [14] concerns hRV14. Also noted: method as in PMID 31729878. The following applies: HeLa cells; cited from earlier work.
For another data set, the system named is Enterovirus-A71 (EV-A71). Also noted: method as in PMID 28122178, PMID 31729878. The following applies: at low micromolar concentration; cited from earlier work.
In another data set the test system is coxsackievirus B3 (CVB3). Also noted: method as in PMID 28122178, PMID 31729878. The following applies: at low micromolar concentration; cited from earlier work.
The mark [15] stands for this setting: Severe acute respiratory syndrome coronavirus 2, Calu-3, 72 h.

In the case of `Cc1nc(NC(=O)C(C)(C)C)sc1-c1csc(NCC(O)CO)n1` (stereo not shown) [4 a], the concentration for half-maximal inhibition (IC50) on PI4KIIIβ stood at 0.29 ± 0.08 µM; in the data set with ZIKV (Huh-7, Huh7 cells, DYRA, 72 h) it was 46.5 ± 2.96 µM; in the data set on hRV2 [2], 1.77 ± 0.62 µM; in the data set on hRV14 [3], 2.32 ± 1.54 µM. In addition, the CC50 in data set [1] was over 100 µM; in “in vitro [8]” it was over 200 µM. This compound came in with a solubility in “physchem” of 5.26 µg/mL (≈ 14.2 µM). Besides, the “Membrane Retention (% MR)” value in the data set “in vitro [4]” was under 0.1%. This compound also yielded a Papp at 5 h, 500 μM in “in vitro [4]” of 0.008 ×10⁻⁶ cm/s. In addition, the “Plasma Stability” value in [5] was 99.4%. The “Stability in Medium/Serum 24 h” value in [6] amounted to 99.0%. The “Stability in Medium/Serum 48 h” value in data set [7] was 97.5%. This compound also showed a CC50 at 3 days in the data set “in vitro [9]” of over 30 µM. This compound displayed a viability at 4 h, 50 µM in “in vitro [10]” of 96%.

In the case of `Cc1nc(NC(=O)C(C)(C)C)sc1-c1csc(N(CCO)CCO)n1` [4 b], the concentration for half-maximal inhibition (IC50) against PI4KIIIβ turned out to be 0.24 ± 0.05 µM; in the data set with ZIKV (Huh-7, Huh7 cells, DYRA, 72 h), 5 ± 1.2 µM; in the data set on hRV2 [2], 1.37 ± 1.31 µM; with hRV14 [3] it was 2.07 ± 1.45 µM. The values for the CC50 (in data set [1]; in the data set “in vitro [8]”) were over 100 µM and 125 µM, respectively. For the same compound, the concentration in solution in the data set “physchem” (solubility) was 0.28 µg/mL (≈ 0.728 µM). The “Membrane Retention (% MR)” value in the data set “in vitro [4]” came to 0.94%. The compound also registered a Papp at 5 h, 500 μM in the data set “in vitro [4]” of 0.021 ×10⁻⁶ cm/s. Also, the “Plasma Stability” value in data set [5] is listed as 90.2%. Also, the “Stability in Medium/Serum 24 h” value in data set [6] was found to be 91.4%. Moreover, the “Stability in Medium/Serum 48 h” value in data set [7] is given as 84.9%. The compound also came in with a CC50 at 3 days in “in vitro [9]” of over 30 µM. Further, the viability at 4 h, 50 µM in the data set “in vitro [10]” stood at 92.6%.

On to `Cc1nc(NC(=O)C(C)(C)C)sc1-c1csc(NCC(C)(C)O)n1` [4 c], for which the IC50 came out at 0.89 ± 0.2 µM against PI4KIIIβ; 0.83 ± 0.31 µM in the data set with ZIKV (Huh-7, Huh7 cells, DYRA, 72 h); 0.39 ± 0.01 µM in the data set on hRV2 [2]; 0.48 ± 0.14 µM in the data set on hRV14 [3]. The CC50 in data set [1] is over 100 µM; in “in vitro [8]”, 37 µM. Further, the concentration in solution in the data set “physchem” (solubility) came to 0.32 µg/mL (≈ 0.868 µM). Moreover, in “in vitro [4]”, the “Membrane Retention (% MR)” value is listed as under 0.1%. For the same compound, the Papp at 5 h, 500 μM in “in vitro [4]” turned out to be 0.323 ×10⁻⁶ cm/s. The “Plasma Stability” value in data set [5] is reported as 92.3%. Further, in data set [6], the “Stability in Medium/Serum 24 h” value worked out at 77%. The “Stability in Medium/Serum 48 h” value in data set [7] was 67.3%. In “in vitro [9]”, this compound returned a CC50 at 3 days of over 30 µM. Also, the viability at 4 h, 50 µM in the data set “in vitro [10]” amounted to 98.3%.

Consider `CN(C)C(=O)COC(=O)Cc1ccc(OC(=O)c2ccc(NC(=N)N)cc2)cc1` [CMT, Camostat, reference compound], for which the IC50 with SARS-CoV-2 [11] (setting [15]) was 0.82 ± 0.32 µM; in the data set on SARS-CoV-2 [12] (Severe acute respiratory syndrome coronavirus 2, Calu-3, read-out: SARS-CoV-2 Calu-3 IC50 (ENTRY-DYRA conditions, in parenthesis)) it was 0.04 µM. Moreover, the CC50 in [1] worked out at 200 µM.

Turning to `CCC(CC)COC(=O)[C@H](C)N[P@](=O)(OC[C@H]1O[C@@](C#N)(c2ccc3c(N)ncnn23)[C@H](O)[C@@H]1O)Oc1ccccc1` [RMD, Remdesivir, reference compound], in the data set with SARS-CoV-2 [11] (Severe acute respiratory syndrome coronavirus 2, Calu-3 cells, 72 h incubation, ±SD, NA: Not active), the IC50 turned out to be 0.11 ± 0.04 µM. The CC50 in data set [1] was determined as 97 µM.

As for `Cc1nc(NC(=O)C(C)(C)C)sc1-c1csc(Nc2cccc(C(=O)O)c2)n1` [compound 1], the IC50 in the data set on SARS-CoV-2 [11] (setting [15]) is 7.45 ± 2.47 µM; with ZIKV (Huh-7, 72 h), 13.8 ± 4.08 µM; in the data set with hRV2 [13] it was 9.7 µM; in the data set on hRV14 [14], 15.3 µM. The “SARS-CoV-2 Calu-3 IC50 (ENTRY-DYRA conditions, in parenthesis)” value with SARS-CoV-2 [12] (Calu-3 cells treated 1 h before infection, compound and virus removed, 72 h incubation) is on record as “no effect on the entry phase”. The CC50 worked out at 45 µM in [1] and 110 µM in “in vitro [8]”. Also, in “physchem”, the concentration in solution (solubility) came to 0.21 µg/mL (≈ 0.504 µM). Besides, in the data set “in vitro [4]”, the “Membrane Retention (% MR)” value is given as under 0.1%. In the data set “in vitro [4]”, this compound displayed an apparent permeability coefficient (Papp) at 5 h, 500 μM of 0.052 ×10⁻⁶ cm/s. Further, the “Plasma Stability” value in data set [5] is 99.1%. For the same compound, in data set [6], the “Stability in Medium/Serum 24 h” value worked out at 96.4%. Moreover, in data set [7], the “Stability in Medium/Serum 48 h” value was 93.1%. Besides, the “inhibition of EV-A71 replication in infected cells” value in the data set with Enterovirus-A71 (EV-A71) is on record as “inhibited”. Moreover, the “inhibition of CVB3 replication in infected cells” value in the data set with coxsackievirus B3 (CVB3) was “inhibited”. In “in vitro [9]”, the CC50 at 3 days stood at 36 µM. The viability at 4 h, 50 µM in the data set “in vitro [10]” was determined as 94.1%.

Broadly, the IC50 is the midpoint of a concentration-inhibition curve. Broadly, the solubility is how much of the substance goes into solution per volume. The Papp is the rate of passage across a membrane or cell layer, normalised by area and donor concentration. Higher therefore signals fast passage. Usually viability stands for a per cent measure of how many cells are alive, often set against a control. A low value points to a greater loss of cells.
